Measurements: ChEMBL document CHEMBL6121066, “Structure-Activity Relationship Studies of DNA Methyltransferase 1 Monovalent Degraders” (J Med Chem, 2025)
Activity calls are given as the source filed them. No cut-off for these calls is given here.

Columns and labels:
HCT-116 [1] = assay: Induction of molecular glue effect mediated DNMT1 degradation in human HCT-116 cells assessed as reduction in DNMT1 protein level incubated for 24 hrs by Western blot analysis; format: cell-based
HCT-116 [2] = assay: Induction of molecular glue effect mediated DNMT1 degradation in human HCT-116 cells assessed as reduction in DNMT1 protein level by measuring maximal efficacy at 1 uM incubated for 24 hrs by Western blot analysis relative to control; format: cell-based
HCT-116 [3] = assay: Induction of molecular glue effect mediated DNMT1 degradation in human HCT-116 cells assessed as reduction in DNMT1 protein level at 500 nM by Western blot analysis; format: cell-based; conditions: time 2-24 hrs
HCT-116 [4] = assay: Induction of molecular glue effect mediated DNMT1 degradation in human HCT-116 cells assessed as reduction in DNMT1 protein level at 500 nM measured after 2 hrs by Western blot analysis relative to control; format: cell-based; parameters: scale not given: the % may be the effect or the level left
HCT-116 [5] = assay: Induction of molecular glue effect mediated DNMT1 degradation in human HCT-116 cells assessed as reduction in DNMT1 protein level at 500 nM measured after 24 hrs by Western blot analysis relative to control; format: cell-based; parameters: scale not given: the % may be the effect or the level left
HCT-116 [6] = assay: Induction of molecular glue effect mediated DNMT1 degradation in human HCT-116 cells assessed as reduction in DNMT1 protein level by measuring half-life at 500 nM preincubated with cycloheximide for 2 hrs followed by compound administration and measured after 24 hrs by Western blot analysis; format: cell-based
HCT-116 [7] = assay: Effect on DNMT1 mRNA level in human HCT-116 cells at 500 nM incubated for 24 hrs by RT-qPCR analysis; format: functional, cell-based
HCT-116 [8] = assay: Antiproliferative activity against human HCT-116 cells assessed as inhibition of cell growth upto 15 uM incubated for 7 days by CCK8 assay relative to control; format: functional; conditions: time 7 day, up to 15 µM
MDA-MB-468 [9] = assay: Effect on DNMT1 mRNA level in human MDA-MB-468 cells at 500 nM incubated for 24 hrs by RT-qPCR analysis; format: functional, cell-based
NCI-H1299 [10] = assay: Effect on DNMT1 mRNA level in human NCI-H1299 cells at 500 nM incubated for 24 hrs by RT-qPCR analysis; format: functional, cell-based
HCT-116 [11] = assay: Induction of molecular glue effect mediated DNMT3A degradation in human HCT-116 cells assessed as reduction in DNMT3A protein level at 500 nM incubated for 24 hrs by Western blot analysis; format: cell-based
HCT-116 [12] = assay: Induction of molecular glue effect mediated DNMT3B degradation in human HCT-116 cells assessed as reduction in DNMT3B protein level at 500 nM incubated for 24 hrs by Western blot analysis; format: cell-based
HCT-116 [13] = assay: Downregulation of DNMT1 protein level in human HCT-116 cells at 1 uM incubated for 12 hrs by MS-based global proteomic analysis; format: functional, cell-based
MV4-11 = assay: Antiproliferative activity against human MV4-11 cells assessed as inhibition of cell growth at 0.177 to 15 uM incubated for 7 days by CCK8 assay; format: functional, cell-based; conditions: dose 0.177-15 µM, time 7.0 day
HCT-116 [14] = assay: Induction of molecular glue effect mediated DNMT1 degradation in human HCT-116 cells assessed as reduction in DNMT1 protein level at 100 nM preincubated with MG132 for 2 hrs followed by compound addition and measured after 24 hrs by Western blot analysis; format: cell-based
HCT-116 [15] = assay: Induction of molecular glue effect mediated DNMT1 degradation in human HCT-116 cells assessed as reduction in DNMT1 protein level at 100 nM preincubated with lysosome inhibitor CQ for 2 hrs followed by compound addition and measured after 24 hrs by Western blot analysis; format: cell-based
MDA-MB-468 [16] = assay: Induction of molecular glue effect mediated DNMT1 degradation in human MDA-MB-468 cells assessed as reduction in DNMT1 protein level at 100 nM preincubated with MG132 for 2 hrs followed by compound addition and measured after 24 hrs by Western blot analysis; format: cell-based
NCI-H1299 [17] = assay: Induction of molecular glue effect mediated DNMT1 degradation in human NCI-H1299 cells assessed as reduction in DNMT1 protein level at 100 nM preincubated with MG132 for 2 hrs followed by compound addition and measured after 24 hrs by Western blot analysis; format: cell-based
HCT-116 [18] = assay: Induction of molecular glue effect mediated DNMT1 degradation in human HCT-116 cells assessed as reduction in DNMT1 protein level at 100 nM preincubated with TAK-243 for 2 hrs followed by compound addition and measured after 24 hrs by Western blot analysis; format: cell-based
HCT-116 [19] = assay: Induction of molecular glue effect mediated DNMT1 degradation in human HCT-116 cells assessed as reduction in DNMT1 protein level at 100 nM preincubated with MLN4924 for 2 hrs followed by compound addition and measured after 24 hrs by Western blot analysis; format: cell-based
MDA-MB-468 [20] = assay: Induction of molecular glue effect mediated DNMT1 degradation in human MDA-MB-468 cells assessed as reduction in DNMT1 protein level at 100 nM preincubated with MLN4924 for 2 hrs followed by compound addition and measured after 24 hrs by Western blot analysis; format: cell-based
NCI-H1299 [21] = assay: Induction of molecular glue effect mediated DNMT1 degradation in human NCI-H1299 cells assessed as reduction in DNMT1 protein level at 100 nM preincubated with MLN4924 for 2 hrs followed by compound addition and measured after 24 hrs by Western blot analysis; format: cell-based
HCT-116 [22] = assay: Induction of molecular glue effect mediated DNMT1 degradation in human HCT-116 cells assessed as reduction in DNMT1 protein level at 100 nM preincubated with TRAF6 inhibitor C25-140 for 2 hrs followed by compound addition and measured after 24 hrs by Western blot analysis; format: cell-based
HCT-116 [23] = assay: Induction of molecular glue effect mediated DNMT1 degradation in human HCT-116 cells assessed as reduction in DNMT1 protein level at 100 nM preincubated with heclin for 2 hrs followed by compound addition and measured after 24 hrs by Western blot analysis; format: cell-based
HCT-116 [24] = assay: Induction of molecular glue effect mediated DNMT1 degradation in human HCT-116 cells transfected with Smurf2 siRNA assessed as reduction in DNMT1 protein level at 100 nM measured after 24 hrs by Western blot analysis; format: cell-based
HCT-116 [25] = assay: Induction of molecular glue effect mediated DNMT1 degradation in human HCT-116 cells transfected with NEDD4 siRNA assessed as reduction in DNMT1 protein level at 100 nM measured after 24 hrs by Western blot analysis; format: cell-based
HCT-116 [26] = assay: Induction of molecular glue effect mediated DNMT1 degradation in human HCT-116 cells transfected with WWP1 siRNA assessed as reduction in DNMT1 protein level at 100 nM measured after 24 hrs by Western blot analysis; format: cell-based
HCT-116 [27] = assay: Induction of molecular glue effect mediated DNMT1 degradation in human HCT-116 cells transfected with UHRF1 siRNA assessed as reduction in DNMT1 protein level at 100 nM measured after 24 hrs by Western blot analysis; format: cell-based

CCc1c(C#N)c(SC(C(N)=O)c2ccccc2)nc(N2CCC(N)CC2)c1C#N (stereo not drawn)
Activity (HCT-116 [1]): Dose-dependent-effect | Emax (HCT-116 [2]): 89% | Activity (HCT-116 [3]): Time-dependent-effect | Activity (HCT-116 [4]): < 30% | Activity (HCT-116 [5]): 100% | T1/2 (HCT-116 [6]): < 4 h | Activity (HCT-116 [7]): inactive | inhibition (INH) (HCT-116 [8]): <50% | Activity (MDA-MB-468 [9]): inactive | Activity (NCI-H1299 [10]): inactive | Activity (HCT-116 [11]): inactive | Activity (HCT-116 [12]): inactive | Activity (HCT-116 [13]): Active | Activity (MV4-11): Active | Activity (HCT-116 [14]): inactive | Activity (HCT-116 [15]): Active | Activity (MDA-MB-468 [16]): inactive | Activity (NCI-H1299 [17]): inactive | Activity (HCT-116 [18]): inactive | Activity (HCT-116 [19]): Active | Activity (MDA-MB-468 [20]): Active | Activity (NCI-H1299 [21]): Active | Activity (HCT-116 [22]): Active | Activity (HCT-116 [23]): Not active; Partial Rescue Of Degradation Observed | Activity (HCT-116 [24]): Active | Activity (HCT-116 [25]): Active | Activity (HCT-116 [26]): Active | Activity (HCT-116 [27]): Not active; Partial Rescue Of Degradation Observed
